According to PubChem BioAssay (NCI):
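Cultured in 96-well plates, cells were exposed to test compound for 48 hours across five concentrations. TGI is the concentration that stops growth completely.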

System: P388/ADR leukemia
Experiment: NCI tumour cell line growth inhibition, 48 h

Structure (SMILES): Nc1ncnc2c(C3OC(CO)C(O)C3O)[nH]nc12 (stereo unspecified)
- TGI: 123 µM
